Measurements: the NIST ThermoML archive (doi:10.1016/j.jct.2014.04.016)

Conditions: for electrical conductivity / viscosity / mass density: 101.33 kPa, Liquid; for electrical conductivity: Alternating current cell with electrodes; for viscosity: Concentric cylinders viscometry; for mass density: Vibrating tube method

CCCCCCCCOS(=O)(=O)[O-].CCn1cc[n+](C)c1 [1-ethyl-3-methylimidazolium octyl sulfate]
Conditions | electrical conductivity [S/m] | mass density [kg/m3] | viscosity [mPa·s]
258.1 K | 0.002 | – | –
263.1 K | 0.003 | – | –
268.1 K | 0.005 | – | –
273.1 K | 0.008 | 1110.8 | 4561
278.1 K | 0.012 | 1107.4 | 2822
283.1 K | 0.017 | 1103.9 | 1815
288.1 K | 0.025 | 1100.5 | 1207
293.1 K | 0.034 | 1097.1 | 826.7
298.1 K | 0.046 | 1093.7 | 581
303.1 K | 0.06 | 1090.2 | 421.7
308.1 K | 0.078 | 1086.9 | 311.7
313.1 K | 0.098 | 1083.6 | 233.3
318.1 K | 0.124 | 1080.3 | 179.1
323.1 K | 0.153 | 1077.1 | 139.8
328.1 K | 0.193 | 1073.9 | 110.9
333.1 K | 0.232 | 1070.7 | 89.14
338.1 K | 0.279 | 1067.5 | 72.56
343.1 K | 0.329 | 1064.4 | 59.81
348.1 K | 0.385 | 1061.2 | 49.83
353.1 K | 0.447 | 1058.1 | 41.94
358.1 K | 0.514 | 1054.9 | 35.63
363.1 K | 0.584 | 1051.8 | 30.53
368.1 K | 0.661 | 1048.8 | 26.36
373.1 K | 0.731 | 1045.7 | 22.92

Conditions | Normal melting temperature [°C]
Crystal, visual observation | 10
